Measured values as given in publication PMC12392461, “Beyond Estrogenicity: A Comparative Assessment of Bisphenol A and Its Alternatives in In Vitro Assays Questions Safety of Replacements” (Environmental Science & Technology, 2025).
Read-outs that look alike come from different tables or passages of the source.

Columns and labels:
[1] = target: T1, Aryl hydrocarbon receptor (Rattus norvegicus, UniProt P41738); details: for EC10, linear transformed / EC10, linear / logEC10: Bioassay AhR, dosing range all; for EC10, linear: linear model fit; for logEC10: log-logistic model fit; for SR-ScoreAhR: SR-Score, sigma k=1, x=5; for EC10, AhR: effect; for log(1/EC10) AhR: input of the ToxPi score, values up to 1.00; for Specificity ratio (SRbaseline) SRAhR: against baseline cytotoxicity; for Specificity ratio (SRcytotoxicity) SRAhR: against experimental cytotoxicity
T1 sequence (P41738 10-853): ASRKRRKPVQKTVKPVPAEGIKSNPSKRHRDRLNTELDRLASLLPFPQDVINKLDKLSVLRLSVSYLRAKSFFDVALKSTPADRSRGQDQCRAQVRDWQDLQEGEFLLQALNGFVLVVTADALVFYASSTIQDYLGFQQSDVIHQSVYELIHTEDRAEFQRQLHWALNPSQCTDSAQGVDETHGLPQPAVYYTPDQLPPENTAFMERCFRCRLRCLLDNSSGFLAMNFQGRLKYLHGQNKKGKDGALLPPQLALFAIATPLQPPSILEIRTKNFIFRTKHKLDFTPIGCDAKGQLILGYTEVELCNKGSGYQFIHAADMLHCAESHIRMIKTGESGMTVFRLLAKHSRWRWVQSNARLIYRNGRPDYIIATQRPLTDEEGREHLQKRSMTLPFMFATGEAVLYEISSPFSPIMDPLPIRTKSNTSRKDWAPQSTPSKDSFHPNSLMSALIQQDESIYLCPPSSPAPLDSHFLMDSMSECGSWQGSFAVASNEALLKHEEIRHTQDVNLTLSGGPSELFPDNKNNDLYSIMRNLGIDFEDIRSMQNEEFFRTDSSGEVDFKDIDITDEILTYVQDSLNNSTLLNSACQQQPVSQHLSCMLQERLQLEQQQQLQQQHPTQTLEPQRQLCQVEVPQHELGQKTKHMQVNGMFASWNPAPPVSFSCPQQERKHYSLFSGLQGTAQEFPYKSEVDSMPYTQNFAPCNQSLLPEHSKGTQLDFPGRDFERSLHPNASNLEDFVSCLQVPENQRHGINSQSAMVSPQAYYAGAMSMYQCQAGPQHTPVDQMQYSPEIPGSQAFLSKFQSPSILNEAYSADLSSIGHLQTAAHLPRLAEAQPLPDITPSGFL
Excerpt: (§1) All bioassay media components and the ERα-UAS-bla GripTite and PPARγ-UAS-bla cells were obtained from Thermo Fisher Scientific (Waltham, MA, USA). AREc32 reporter gene cells based on MCF7 were provided by C. Roland Wolf (Cancer Research UK); AhR CALUX cells (H4L7.5c2 derived from H4IIe) were provided by Michael Denison (UC Davis, USA); and SH-SY5Y cells were purchased from Sigma-Aldrich.
(§2) Cell culture conditions and bioassay protocols including response detection are provided in Text S2.1–2.4 and Table S3. − Cell viability was determined from cell confluency using an IncuCyte S3 Live-Cell Analysis System (Sartorius AG, Essen, Germany) before and after exposure, except for SH-SY5Y cells (live–dead staining with Nuclear Green LcS1 and propidium iodide, Abcam, UK). For metabolic activation experiments, cell viability was assessed using the ToxBLAzer DualScreen Kit (Thermo Fisher Scientific) to capture the remaining toxicity in ERα-UAS-bla GripTite after treatment with the aCYP catalyst (details in Text S2.4).
(§3) For ARE, the concentration that triggered an induction ratio of 1.5 (ECIR1.5) was used as the benchmark value, as detailed in Text S2.5. IC10 values also served as a threshold for data analysis in all assays; only concentrations below IC10 were considered when deriving EC10 or ECIR1.5. […]
(§4) S2: Cell culture and bioassays
(§5) S2.1: Cell Culturing Conditions
(§6) All suppliers and sources are given in detail in SI-Excel S3. The bioassay media for the different assays were prepared as follows: Assay medium for ER alpha-UAS-bla GripTite (ERα) and PPAR gamma-UAS-bla 293H (PPARγ) was prepared with 98% Opti-MEM, supplemented with 2% charcoal-stripped FBS, and 100 U/mL penicillin-streptomycin. MitoOxTox and AhR assay medium was comprised of 90% DMEM with GlutaMAX, supplemented with 10% FBS, and 100 U/mL penicillin-streptomycin. Neurotoxicity assay medium consisted of the neurobasal […]
(§7) (1 picture or pasted object on this page, not shown here) […]
(§8) medium, supplemented with 2% B-27 Supplement and 2 mM GlutaMAX Supplement. SH - SY5Y cells were differentiated with 10 µM all-trans retinoic acid prior to the assay.
(§9) S2.2: Cell Seeding and Incubation. For all bioassays, cell suspensions in the respective assay medium were dispensed into each well of 384-well plates using a MultiFlo Dispenser (Biotek, (now Agilent), Winooski, VT, U.S.). After seeding, the plates were incubated at 37° C and 5% CO₂ for […]. The final cell densities and plate types were as follows: Black poly-D-lysine coated 384-well plates (Product No. 354663, Corning Inc., NYC, U.S.) were used for PPARγ:
(§10) 6500 cells/well, ERα: 5000 cells/well. White 384-well plates with a clear bottom (Product No.
(§11) 781098, Greiner, Kremsmünster, Austria) were utilized for the MitoOxTox assay: 2650

[2] = test system: SH-SY5Y cells; experiment: cells; details: for EC10: Homo sapiens, SH-SY5Y; for EC10, linear / logEC10: NOI bioassay, dosing range all; for EC10, linear: linear model; for logEC10: log-logistic model; for Specificity ratio (SRbaseline) SRNOI: against baseline cytotoxicity; for Relative effect potency REPNOI: relative to BPA; for Specificity ratio (SRcytotoxicity) SRNOI: against experimental cytotoxicity;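 on Relative effect potency REPNOI: EC10 of BPA divided by EC10 of the test compound so values above 1 mean more potent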;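 on Specificity ratio (SRbaseline) SRNOI: ratio of predicted baseline cytotoxicity IC10 to the neurite outgrowth inhibition EC10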
Excerpt: as §1, §2, §3, §4, §5, §6, §7, §8, §9, §10, §11

[3] = read-out: EC10, linear transformed

SMILES | EC10, AhR (M) [1] | EC10, linear transformed [1] | EC10, linear [1] | logEC10 [1] | SR-ScoreAhR [1] | EC10, AhR [1] [µM] | EC10 ([2]; read-out: EC10, NOI) [M] | EC10 ([2]; read-out: EC10, NOI (M)) [M] | EC10 ([2]; read-out: EC10, linear) [M] | EC10 [2, 3] [M] | EC10 ([2]; read-out: logEC10) [M] | log(1/EC10) AhR [1] | EC10, linear [2] | logEC10 [2] | Specificity ratio (SRbaseline) SRAhR [1] | Specificity ratio (SRcytotoxicity) SRAhR [1] | Specificity ratio (SRbaseline) SRNOI [2] | Relative effect potency REPNOI [2] | Specificity ratio (SRcytotoxicity) SRNOI [2]
CC(c1ccc(O)cc1)c1ccc(O)cc1 [BPE, 4,4′-Ethylidenbisphenol] | 6.19 × 10^–5 M | 7.73E-05 | 6.19E-05 | -4.12 | 0.0256 | 61.9 | 0.000114 | 0.000114 | 0.000136 | 0.000235 | 0.000115 | – | – | – | – | – | – | – | –
Oc1ccc(Cc2ccc(O)cc2)cc1 [BPF, Bis(4-hydroxyphenyl)methane] | – | 2.17E-04 | 1.67E-04 | masked by cytotoxicity | – | – | – | – | – | 0.000697 | – | 0.66 | no effect | no effect | – | – | – | – | –
CC(C)c1cc(C(C)(C)c2ccc(O)c(C(C)C)c2)ccc1O [BPG, 2,2-Bis(4-hydroxy-3-isopropylphenyl)propane] | – | – | no effect | no effect | – | – | – | – | – | 2.67e-05 | – | 0.96 | no effect | no effect | – | – | – | – | –
CC(C)(c1ccc(O)c(-c2ccccc2)c1)c1ccc(O)c(-c2ccccc2)c1 [BPPH, 2,2-Bis(2-hydroxy-5-biphenylyl)propane] | 9.54 × 10^–6 M | 9.38E-06 | 9.54E-06 | -5.02 | 0.0254 | 9.54 | – | – | 9.84e-06 | 2.12e-05 | – | 0.99 | – | no effect | 0.43 | 1.35 | – | – | –
O=S(=O)(c1ccc(O)cc1)c1ccc(O)cc1 [BPS, 4,4'-Sulfonyldiphenol] | – | – | no effect | no effect | – | – | – | – | – | 0.000411 | – | 0.68 | no effect | no effect | – | – | – | – | –
C=CCOc1ccc(S(=O)(=O)c2ccc(O)cc2)cc1 [BPS-MAE, 4-[[4-(Allyloxy)phenyl]sulfonyl]phenol] | – | – | no effect | no effect | – | – | 2.52e-05 | 2.52e-05 | 6.61e-05 | 2.55e-05 | 2.51e-05 | 0.71 | – | – | – | – | – | – | –
O=S(=O)(c1ccc(O)cc1)c1ccc(OCc2ccccc2)cc1 [BPS-MPE, 4-[4-(benzyloxy)benzenesulfonyl]phenol] | – | – | no effect | no effect | – | – | 0.000247 | 0.000247 | 0.000638 | 0.000247 | 0.000245 | 0.91 | – | – | – | – | 0.11 | 0.21 | –
Oc1ccc(Sc2ccc(O)cc2)cc1 [BPT, 4,4'-Thiodiphenol] | – | 9.56E-05 | no effect | masked by cytotoxicity | – | – | – | – | – | – | – | 0.82 | no effect | no effect | – | – | – | – | –
Cc1ccc(S(=O)(=O)NC(=O)Nc2ccc(Cc3ccc(NC(=O)NS(=O)(=O)c4ccc(C)cc4)cc3)cc2)cc1 [BTUM, 4,4'-Bis(p-tolylsulfonylureido)diphenylmethane] | – | – | no effect | no effect | – | – | 6.48e-05 | 6.48e-05 | – | 6.48e-05 | 6.46e-05 | – | no effect | – | – | – | 1.03 | 0.78 | –
COC(=O)C(c1ccc(O)cc1)c1ccc(O)cc1 [Bz, Methyl bis(4-hydroxyphenyl)acetate] | 6.20 × 10^–5 M | 5.80E-05 | 6.20E-05 | -3.94 | 0.0375 | 62 | – | – | – | 0.0004 | 0.00038 | – | no effect | – | 5.57 | 1.75 | – | – | –
O=C(OCc1ccccc1)c1ccc(O)cc1 [BzPB, Benzyl 4-hydroxybenzoate] | – | 1.73E-04 | no effect | no effect | – | – | – | – | – | 0.000412 | – | 0.80 | no effect | no effect | – | – | – | – | –
CC(C)Oc1ccc(S(=O)(=O)c2ccc(O)cc2)cc1 [D8, 4-((4-Isopropoxyphenyl)sulfonyl)phenol] | – | – | no effect | no effect | – | – | 0.000191 | 0.000191 | 0.000353 | 0.000186 | 0.000191 | 0.75 | – | – | – | – | 0.56 | 0.27 | 2.56
Cc1ccc(S(=O)(=O)NC(=O)Nc2cccc(OS(=O)(=O)c3ccc(C)cc3)c2)cc1 [Pergafast, N-(p-toluenesulfonyl)-N'-(3-(p-toluenesulfonyloxy)phenyl)urea] | 2.29 × 10^–5 M | 2.45E-05 | 2.29E-05 | -4.61 | 0.73 | 22.9 | 1.25e-05 | 1.25e-05 | 1.25e-05 | 1.52e-05 | 1.51e-05 | – | – | – | 6.02 | – | 8.80 | 4.06 | 3.95
CC(C)(c1cc(Cl)c(O)c(Cl)c1)c1cc(Cl)c(O)c(Cl)c1 [TCBPA, 2,2',6,6'-Tetrachlorobisphenol A] | – | 7.24E-05 | 1.69E-04 | no effect | – | – | 0.000322 | 0.000322 | – | 0.000322 | 0.000324 | 0.84 | masked by cytotoxicity | – | – | – | – | – | –
Cc1cc(Cc2cc(C)c(O)c(C)c2)cc(C)c1O [TMBPF, Bis(3,5-dimethyl-4-hydroxyphenyl)methane] | – | 1.03E-04 | no effect | no effect | – | – | 4.28e-06 | 4.28e-06 | 5.06e-06 | 5.49e-06 | 4.27e-06 | – | – | – | – | – | 2.18 | 11.87 | 2.97
CC1(C)[C@H](O)C(C)(C)[C@H]1O [Trans TMCD] | – | 8.49E-03 | no effect | -2.00 | – | – | – | – | 0.00531 | 0.00415 | 0.00417 | – | – | – | – | – | – | – | –
